In the NIST ThermoML archive (doi:10.1021/je100476h):
Numbers after ± are expanded uncertainties.

Experiment: mn = molality of the nth substance listed, in mol/kg
Conditions: 101 kPa, Liquid

CC(=O)[O-].[Na+] [sodium ethanoate] + O
mass density [kg/m3]
Conditions	288.15 K	298.15 K	308.15 K	318.15 K
m1 = 0.1	1003.46 ± 0.26	1001.31 ± 0.25	998.243 ± 0.25	994.384 ± 0.26
m1 = 0.25	1009.6 ± 0.28	1007.39 ± 0.27	1004.27 ± 0.26	1000.35 ± 0.25
m1 = 0.5	1019.38 ± 0.31	1017.07 ± 0.3	1013.89 ± 0.29	1009.85 ± 0.28
m1 = 1	1037.22 ± 0.37	1034.76 ± 0.36	1031.54 ± 0.35	1027.23 ± 0.34

NCCCCCC(=O)O [6-aminohexanoic acid] + O
mass density [kg/m3]
Conditions	m1 = 0.05814	m1 = 0.09073	m1 = 0.1798	m1 = 0.1945	m1 = 0.267	m1 = 0.3522
288.15 K	1000.76 ± 0.25	1001.66 ± 0.25	1004.09 ± 0.26	1004.48 ± 0.26	1006.41 ± 0.27	1008.64 ± 0.27
298.15 K	998.622 ± 0.25	999.493 ± 0.25	1001.84 ± 0.25	1002.22 ± 0.25	1004.08 ± 0.26	1006.23 ± 0.27
308.15 K	995.592 ± 0.26	996.454 ± 0.26	998.775 ± 0.25	999.147 ± 0.25	1000.99 ± 0.25	1003.12 ± 0.26
318.15 K	991.793 ± 0.27	992.649 ± 0.27	994.956 ± 0.26	995.328 ± 0.26	997.158 ± 0.26	999.27 ± 0.25

O [water] + CC(=O)[O-].[Na+]
Conditions	mass density [kg/m3]
308.15 K, m2 = 0	994.063 ± 0.27

NCC(=O)O [2-aminoacetic acid] + O
mass density [kg/m3]
Conditions	m1 = 0.1429	m1 = 0.2709	m1 = 0.3812	m1 = 0.4102	m1 = 0.4801	m1 = 0.5732
288.15 K	1003.76 ± 0.26	1007.85 ± 0.27	1011.33 ± 0.28	1012.23 ± 0.28	1014.4 ± 0.29	1017.27 ± 0.3
298.15 K	1001.56 ± 0.25	1005.54 ± 0.26	1008.93 ± 0.27	1009.8 ± 0.28	1011.92 ± 0.28	1014.71 ± 0.29
308.15 K	998.477 ± 0.25	1002.4 ± 0.25	1005.73 ± 0.26	1006.59 ± 0.27	1008.66 ± 0.27	1011.41 ± 0.28
318.15 K	994.636 ± 0.26	998.503 ± 0.25	1001.79 ± 0.25	1002.63 ± 0.25	1004.67 ± 0.26	1007.37 ± 0.27

CC(=O)[O-].CC(=O)[O-].[Mg+2] [magnesium acetate] + O
mass density [kg/m3]
Conditions	288.15 K	298.15 K	308.15 K	318.15 K
m1 = 0.1	1007.01 ± 0.28	1004.9 ± 0.27	1001.84 ± 0.26	998.062 ± 0.26
m1 = 0.25	1018.2 ± 0.31	1016.05 ± 0.3	1012.89 ± 0.29	1009.15 ± 0.28
m1 = 0.5	1035.44 ± 0.36	1033.15 ± 0.35	1030.05 ± 0.34	1026.24 ± 0.33
m1 = 1	1064.68 ± 0.46	1061.74 ± 0.45	1059.65 ± 0.44	1055.19 ± 0.43

NCCCC(=O)O [4-aminobutanoic acid] + O
mass density [kg/m3]
Conditions	m1 = 0.04607	m1 = 0.09549	m1 = 0.1155	m1 = 0.1652	m1 = 0.1882	m1 = 0.2277
288.15 K	1000.54 ± 0.25	1002.05 ± 0.25	1002.65 ± 0.25	1004.13 ± 0.26	1004.83 ± 0.26	1005.99 ± 0.26
298.15 K	998.428 ± 0.25	999.894 ± 0.24	1000.48 ± 0.25	1001.93 ± 0.25	1002.61 ± 0.25	1003.73 ± 0.26
308.15 K	995.406 ± 0.26	996.864 ± 0.25	997.447 ± 0.25	998.889 ± 0.25	999.542 ± 0.25	1000.66 ± 0.25
318.15 K	991.616 ± 0.27	993.071 ± 0.27	993.654 ± 0.26	995.086 ± 0.26	995.747 ± 0.26	996.868 ± 0.26
